Patent US11723947B2, “Anti-senescence compounds and uses thereof” (Erasmus University Medical Center Rotterdam, priority 2015, dated 2023)
Peptide text beside a SMILES is read from it. * marks the point of attachment. Cbz = O=C(OCc1ccccc1)*; CH2F = FC*

Legend:
[1] = test system: Senescent and control IMR90; details: for effect of pan-caspase inhibitor on the FOXO4 DRI effect on senescent cell viability: 20 μM inhibitor, 25 μM FOXO4 DRI, senescent IMR90, 6 days; for effect on effectiveness of FOXO4 DRI in lowering senescent cell viability: viability measured one day earlier
Procedure: The selectivity index (S.I.) for the EC50 values was determined after […] (GraphPad Prism) of the curves. […] Real-time cell density was measured using an xCELLigence detection system (ACEA Biosciences). Prior to the start of the measurement 50 μL DMEM 10% FCS was added to each well of an E-plate view 16 (Roche) to determine background signal. Non-senescent (2000 cells per well) and senescent (5000 cells/well) IMR90 fibroblasts were then plated in 150 μl medium. 16 hours later the E-plate was placed in the xCELLigence reader and the cell density was recorded every 30 minutes. […] Measurements continued for the indicated time-points. […] Experiment as in FIG. 2C, but with the indicated peptides. […] Cells were plated in 4-well Poly-L-Lysine coated glass bottom 35 mm dishes (D141410; Matsumi, Japan) and incubated with NucView488 Caspase-3 (4440; Essen Bioscience). […] 8h after addition the real-time imaging was initiated and every 30 min a grid of 3×3 pictures was imaged. The imaging continued for another 6 days and the images were concatenated using Zen imaging software. […] After 6 days cell viability was determined as in FIG. 2C). […] Experiment as in FIG. 2C, but according to the indicated treatment plan. Instead of one single dose, three doses were given (one day in between) of ⅓ that concentration each time. […] Left: Experiment as in FIG. 2C, but on cells pretreated once daily for two days with IL-1α Receptor Antagonist (RA), which blocks IL-1α/β signaling, recombinant IL-6 and recombinant IL-1α/β. […] Right: Similar experiment as in the left panel, except viability measured one day earlier. […] In senescent cells p53 signaling causes upregulation of the cell-cycle arrest and pro-survival protein p21Cip1. […] Experiment as in FIG. 2K. […] Experiment as in FIG. 2c, but with control and senescent IMR90 stable transduced with shRNAs against p53 or a control shRNA (shGFP).
A) Control IMR90 and IMR90 induced to senesce through 10Gy IR were plated in triplicate for each condition in a 96-well plate. […] After 6 days viability was determined through AqeousOne celltiter assay (Promega) according to the manufacturer's instructions.
Non-senescent (=“normal”, proliferating) IMR90 cells (ATCC #CCL-186, a diploid primary human fibroblast adherent cell line derived from fetal lung tissue) were irradiated with 10Gy Gamma-IR (IR=irradiation). After 7 days these cells are senescent and can be used for experiments comparing them to their non-irradiated (=non-senescent) counterparts. Senescent and non-senescent IMR90 fibroblasts were plated for longitudinal cell density measurement using the xCELLigence system (ACEA Biosciences, Inc., San Diego, Calif.).
(§1) 5000 senescent (obtained as described above) and 2000 non-senescent IMR90 fibroblasts were plated in 96-well plates incubated with concentrations of NQDI between 0-20 μM and after 6 days cell viability was determined by AqueousOne CellTiter (MTT) assay according to the manufacturer's instructions.
as §1, with “R406, ranging from 16, 32, 64 to 128 nM” for “NQDI between 0-20 μM”
Normal human IMR90 fibroblasts were exposed to 10 Gy Ionizing Radiation or treated 3× (bidaily) with 0.5 μM Doxorubicin. Seven days later they were processed for SA-β-Gal staining to visualize senescent cells. […] DAPI was used as a counterstain to visualize nuclei. […] After 6 days the cell viability was determined using an AqueousOne Celltiter (MTT) assay according to the manufacturer's instructions.

[2] = test system: p16^ink4a-positive senescence; assay: Doxorubicin-induced senescence in p16::3MR mice (RLUC bioluminescence, SA-beta-GAL); format: in vivo, mouse
Procedure: IMR90 cells were exposed twice to 0.5 μM Doxorubicin with one day in between. SA-β-GAL activity was determined 7 days later. […] This figure complements FIG. 4A+B by showing that next to the senescence markers SA-β-Gal and p16^ink4a also the SASP marker IL-6 is elevated by Doxorubicin. […] Mice were i.p. injected with 10 mg/kg Doxorubicin and analyzed for RLUC on the indicated time-points. Changes in RLUC intensity for 5 animals are plotted for the indicated timepoints after injection. […] Following one dose of Doxorubicin (10 mg/kg, i.p.) the mice were treated with FOXO4 DRI (n=6; 4×10 mg/kg i.v.) or PBS (n=4; 4× Mock) and processed for RLUC imaging after 14 d. […] Mice treated as indicated in FIG. 4F were analyzed for Bioluminescence. […] H) To improve the window for measuring healthspan changes, the treatment regime from FIG. 4F) was extended with one additional dose of Doxorubicin and milder FOXO4 DRI treatment. Following two doses of Doxorubicin (both 10 mg/kg i.p.) the mice (n=3 each group) were subsequentially treated with PBS or FOXO4 DRI (3×5 mg/kg, 1 d in between) and 14 d later analyzed for changes in healthspan. […] Post-mortem analysis of liver sections from mice (n=2 each group) treated as in FIG. 4H and stained for FOXO4. The number of FOXO4 foci was objectively quantified using ImageJ. […] Mice treated as depicted in FIG. 4H (n=9 for PBS, n=11 for FOXO4 DRI) were analyzed for total body weight before and after Doxorubicin-exposure followed by treatment with PBS or FOXO4 DRI. […]
Our senescence-detection model makes use of a construct in which the promoter of p16^ink4a drives a so-called trimodality reporter (3MR) referred to as p16::3MR. […] RLUC and RFP allow visualization of senescent cells in real-time through bioluminescence and fluorescence, respectively. […] On day 0, p16::3MR mice (Demaria et al., Developmental Cell, 31:6 p. 722-733 (2014)) including the Supplemental Experimental procedures) were i.p. injected with 10 mg/kg Doxorubicin and RLUC activity as measure of senescence was determined on the indicated timepoints. […]

Doxorubicin-treated mice = assay: Doxorubicin-treated mice: liver sections, body weight, plasma ASAT and Amylase; format: in vivo
Procedure: IMR90 cells were exposed twice to 0.5 μM Doxorubicin with one day in between. SA-β-GAL activity was determined 7 days later. […] Mice were i.p. injected with 10 mg/kg Doxorubicin and analyzed for RLUC on the indicated time-points. Changes in RLUC intensity for 5 animals are plotted for the indicated timepoints after injection. […] Mice treated as indicated in FIG. 4F were analyzed for Bioluminescence. […] Liver sections from the experiment in FIG. 4I were stained for IL-6. […] The ratio was plotted. […] Experiment as in FIG. 4H. n=3 animals per group.

IMR90 cells = assay: Senescence markers in Doxorubicin-treated IMR90 in vitro; format: cell-based, human
Procedure: IMR90 cells were exposed twice to 0.5 μM Doxorubicin with one day in between. SA-β-GAL activity was determined 7 days later. […] This figure complements FIG. 4A+B by showing that next to the senescence markers SA-β-Gal and p16^ink4a also the SASP marker IL-6 is elevated by Doxorubicin. […] Mice were i.p. injected with 10 mg/kg Doxorubicin and analyzed for RLUC on the indicated time-points. Changes in RLUC intensity for 5 animals are plotted for the indicated timepoints after injection. […] Following one dose of Doxorubicin (10 mg/kg, i.p.) the mice were treated with FOXO4 DRI (n=6; 4×10 mg/kg i.v.) or PBS (n=4; 4× Mock) and processed for RLUC imaging after 14 d. […] Mice treated as indicated in FIG. 4F were analyzed for Bioluminescence. […] H) To improve the window for measuring healthspan changes, the treatment regime from FIG. 4F) was extended with one additional dose of Doxorubicin and milder FOXO4 DRI treatment. Following two doses of Doxorubicin (both 10 mg/kg i.p.) the mice (n=3 each group) were subsequentially treated with PBS or FOXO4 DRI (3×5 mg/kg, 1 d in between) and 14 d later analyzed for changes in healthspan. […] Post-mortem analysis of liver sections from mice (n=2 each group) treated as in FIG. 4H and stained for FOXO4. The number of FOXO4 foci was objectively quantified using ImageJ. […] Liver sections from the experiment in FIG. 4I were stained for IL-6. […] Mice treated as depicted in FIG. 4H (n=9 for PBS, n=11 for FOXO4 DRI) were analyzed for total body weight before and after Doxorubicin-exposure followed by treatment with PBS or FOXO4 DRI. The ratio was plotted. […] Experiment as in FIG. 4H. n=3 animals per group.
DAPI was used as a counterstain to visualize nuclei. […] The histograms show % viability for the indicated conditions (.

CC(C)[C@H](NC(=O)c1ccc2ccccc2n1)C(=O)N[C@@H](CC(=O)O)C(=O)COc1c(F)cccc1F [QVD-OPH]
effect of pan-caspase inhibitor on the FOXO4 DRI effect on senescent cell viability [1]: potently blocked the effect of FOXO4 DRI to reduce senescent cell viability

Lipopolysaccharide
effect on effectiveness of FOXO4 DRI in lowering senescent cell viability [1]: improves it

COc1cccc2c1C(=O)c1c(O)c3c(c(O)c1C2=O)C[C@@](O)(C(=O)CO)C[C@@H]3O[C@H]1C[C@H](N)[C@H](O)[C@H](C)O1 [Doxorubicin]
induction of senescence in vivo (RLUC) ([2]; 10 mg/kg i.p., p16::3MR mice): induces p16^ink4a-mediated senescence in vivo | organ toxicity (liver, pancreas) (Doxorubicin-treated mice; mouse, in vivo, ip, 10 mg/kg): caused organ toxicity | total body weight (Doxorubicin-treated mice; two doses 10 mg/kg i.p., mice): causes a drop in body weight | SA-β-GAL expression (IMR90 cells; IMR90, twice 0.5 μM, 7 days later): induces SA-β-GAL expression in IMR90 cells in vitro | IL-6 (SASP marker) (IMR90 cells; IMR90 in vitro): induces IL-6, indicative of elevated SASP | expression of p16^ink4a and FOXO4 (IMR90 cells; IMR90 in vitro): induces expression of p 16^ink4a and FOXO4 in IMR90 in vitro

C[C@]12CCC(=O)C=C1CC[C@@H]1[C@@H]2[C@@H](O)C[C@@]2(C)[C@H]1CC[C@]2(O)C(=O)CO [Cortisol]
effect on effectiveness of FOXO4 DRI in lowering senescent cell viability [1]: reduce the effectiveness of FOXO4 DRI in lowering senescent cell viability

IL-1RA: IL-1α Receptor Antagonist, which blocks IL-1α/β signaling
effect of pretreatment on effectiveness of FOXO4 DRI for killing senescent cells ([1]; pretreated once daily for two days, FOXO4 DRI 12.5 μM): reduced the effectiveness of FOXO4 DRI

COC(=O)C[C@H](NC(=O)[C@H](C)NC(=O)[C@@H](NC(=O)OCc1ccccc1)C(C)C)C(=O)CF [ZVAD-FMK] (Cbz-Val-Ala-Asp(OMe)-CH2F)
effect of pan-caspase inhibitor on the FOXO4 DRI effect on senescent cell viability [1]: potently blocked the effect of FOXO4 DRI to reduce senescent cell viability

CN(C)CC[C@H](CSc1ccccc1)Nc1ccc(S(=O)(=O)NC(=O)c2ccc(N3CCN(Cc4ccccc4-c4ccc(Cl)cc4)CC3)cc2)cc1[N+](=O)[O-] [ABT-737]
toxicity to non-senescent cells [1]: proved to be toxic to non-senescent cells | killing/clearing of senescent cells ([1]; 3× at ⅓, 3 days in between, senescence by IR): only showed limited effectiveness on killing senescent cells

O=c1c(O)c(-c2ccc(O)c(O)c2)oc2cc(O)cc(O)c12 [Quesrcetin]
clearing of senescent IMR90, viability senescent vs non-senescent ([1]; Quesrcetin alone): inefficent towards clearing senescent IMR90

COc1cc(Nc2ncc(F)c(Nc3ccc4c(n3)NC(=O)C(C)(C)O4)n2)cc(OC)c1OC [R406, 6-(5-fluoro-2-(3,4,5-trimethoxyphenylamino)pyrimidin-4-ylamino)-2,2-dimethyl-2H-pyrido[3,2-b][1,4] oxazin-3 (4H)-one benzenesulfonate]
SA-beta-GAL deposits in kidneys ([2]; Doxorubicin 10 mg/kg i.p. day 0, once daily i.v. day 11-14): reduced SA-beta-GAL deposits in kidneys | Doxorubicin-induced senescence in vivo (bioluminescence) ([2]; Doxorubicin 10 mg/kg i.p. day 0, once daily i.v. day 11-14, imaging day 11 and day 21): repress Doxorubicin-induced senescence in vivo | % viability over Mock, senescent and non-senescent IMR90 ([1]; 16, 32, 64 to 128 nM, 6 days): selectively reduces senescent cell viability
